These are literature values, as cited in patent US20100297232A1, “ONDANSETRON FILM COMPOSITIONS” (MonoSol Rx, LLC, priority 2009, published 2010).

Like-named read-outs stand apart in the source and are kept apart here.

With `Cc1nccn1CC1CCc2c(c3ccccc3n2C)C1=O` (centres unmarked) [ondansetron base, ondansetron], the solubility entry reads like this: (pH 1.2 and below) “soluble”; (pH 8) “practically insoluble”.
